From PMC12406195, “Understanding the Modes of Action of β‑Ketoiminato Iridium(III) Complexes in Cancer Cells” (Inorganic Chemistry, 2025)

Key:
Type in all cases: cell-based, human
[1] = system: MDA-MB-231 cells; test: Acridine orange/ethidium bromide (AO/EB) staining; conditions: MDA-MB-231, 48 h
Method: To investigate how the drugs impacted cell viability, acridine orange (AO)/ethidium bromide (EtBr) staining was employed to identify the MDA-MB-231 cells' mode of death in response to compound 1 or CDDP, with AO marking early apoptotic cells in green and EtBr marking late apoptotic or necrotic cells in red. […] This effect was more pronounced than with CDDP, indicating its higher efficacy.
(§1) MDA-MB-231 cells at 4000 cells/well were seeded into a black clear -bottom 96-well plate using phenol-red free complete RMPI medium, and incubated for 48 h. The cells were treated with 100 µM of 1 for 4 h alongside an untreated sample (control). […] Fluorescence images were obtained using a Zeiss Observer 7 inverted microscope at excitation at 488 nm and emission at 509 […]
(§2) Plasmid DNA (200 ng, pBOS -H2B-GFP, BD Biosciences) was incubated overnight at room temperature with 1 or CDDP at concentrations between 100 and 400 μM in double -distilled H2O (20 μL total volume). […] The experiment was conducted in two biological replicates, and the band intensities were quantified and analyzed using ImageJ software. […]
(§3) MDA-MB-231 cells were seeded in 6-well plates at a density of 1.2 × 10⁵ cells/well. […] The samples were then placed on microscope slides, covered with a coverslip, and their morphology was examined using a fluorescence microscope (Eclipse TS100, Nikon). […]

[2] = system: MIA PaCa-2 cells; test: Chemosensitivity (MTT cell viability) assay, MIA PaCa-2
Method: (§4) All cytotoxicity assays were conducted using human cell lines: breast adenocarcinomas (MDA-MB-231 and MCF-7), pancreatic carcinoma (MIA PaCa-2) and non-cancerous epithelial retinal (ARPE-19) cell lines. All cell lines were routinely maintained as monolayer cultures in appropriate complete media:
(§5) MCF-7, MIA PaCa-2 and ARPE-19 in high glucose DMEM and MDA-MB-231 in RPMI-1640, and both media were supplemented with 10% FBS, 1 mM sodium pyruvate, 2 mM L-glutamine, and 1% pen-strep. All cells were initially grown in T-25 or T-75 flasks at 37 °C and 5% CO2. Before chemosensitivity studies, cell monolayers were passaged using trypsin-EDTA (0.05%) and diluted to a concentration of 1 x 10^4 cells/mL (or 4 x 10^4 cells mL for 24 h assays). All assays were conducted in 96-well plates, in which 100 µL of the cell suspension was added for 24 h at 37 °C and 5% CO2, and then 100 µL of compound/medium dilutions for a further 96 h (or 24 h). All compound stocks were made using sterile DMSO at 100 mM before dilution, and a maximum of 0.1% DMSO was used in each assay. After incubation, 3-(4,5-dimethylthiazol-2-yl)-2,5-diphenyltetrazolium bromide (20 µL, 5 mg/mL in PBS) was added to each well and incubated for 3 h at 37°C and 5% CO2. All solutions were then aspirated, DMSO (150 µL) added to each well, gently mixed, and the absorbance was measured at 540 nm using a ClarioStar spectrophotometer microplate reader. Results were plotted on a logarithmic scale, and the half maximal inhibitory concentration (IC50) was determined from a triplicate of triplicate repeats (n = 9) and reported as an IC 50 ± Standard Deviation (SD).

[3] = system: MDA-MB-231 cells; test: Chemosensitivity (MTT cell viability) assay, MDA-MB-231; conditions: for IC50: n = 9
Method: as §4, §5

[4] = system: MDA-MB-231 cells; test: Reactive oxygen species (H2DCFDA fluorescence); conditions: MDA-MB-231, 100 μM, 4 h, compared to nontreated control
Method: To measure the degree of ROS produced in MDA-MB-231 cells, 2′,7′-dichlorodihydrofluorescein diacetate (H2DCFDA), a cell-permeable fluorescent dye, was used. H2DCFDA is deacetylated by esterases and consecutively oxidized by intracellular ROS into a fluorescent molecule, dichlorofluorescein (DCF).
as §1, with “(control). 2′,7′ -dichlorodihydrofluorescein diacetate (H 2DCFDA, 20 μM final concentration in PBS ) was added for 45 min.” for “(control).”
as §2, §3

Q: What does the source list for “[Cp*Ir(C16H14NO)(PTA)](PF6) [Compound 1]”?
A: AO/EtBr staining (mode of cell death) [1]: increased staining for both dyes; IC50 ([2]; MIA PaCa-2, 96 h, n = 9): 9 ± 1 µM; Selectivity index (SI) ([2]; MIA PaCa-2 compared to ARPE-19, 96 h): 1.2; IC50 ([3]; MDA-MB-231, 24 h): 18 ± 1 µM; IC50 ([3]; MDA-MB-231, 96 h): 6.3 ± 0.7 µM; Selectivity index (SI) ([3]; MDA-MB-231 compared to ARPE-19, 96 h): 1.7; ROS generation (DCF fluorescence) [4]: increase in fluorescence
